# Results as given in ChEMBL document CHEMBL1275528, “RamA confers multidrug resistance in Salmonella enterica via increased expression of acrB, which is inhibited by chlorpromazine” (2008).
# Legend:
# [1] = Antimicrobial activity against Salmonella serovar Typhimurium SL1344 by broth dilution method in presence of chlorpromazine; format: functional; settings: Salmonella enterica
# [2] = Antimicrobial activity against Salmonella serovar Typhimurium SL1344 expressing ramA::aph-pTRC hisA:ramA mutant by broth dilution method; format: functional; settings: Salmonella enterica
# [3] = Antimicrobial activity against Salmonella serovar Typhimurium SL1344 expressing ramA::aph-pTRC hisA:ramA mutant by broth dilution method in presence of IPTG; format: functional; settings: Salmonella enterica
# [4] = Antimicrobial activity against Salmonella serovar Typhimurium SL1344 expressing ramA::aph-pTRC hisA:ramA mutant by broth dilution method in presence of chlorpromzine; format: functional; settings: Salmonella enterica
# [5] = Antimicrobial activity against Salmonella serovar Typhimurium SL1344 expressing ramA::aph mutant by broth dilution method; format: functional; settings: Salmonella enterica
# [6] = Antimicrobial activity against Salmonella serovar Typhimurium SL1344 by broth dilution method; format: functional; settings: Salmonella enterica
# [7] = Antimicrobial activity against Salmonella serovar Typhimurium SL1344 expressing tolC::aph mutant by broth dilution method; format: functional; settings: Salmonella enterica
# [8] = Antimicrobial activity against Salmonella serovar Typhimurium SL1344 expressing acrB::aph mutant by broth dilution method; format: functional; settings: Salmonella enterica
# [9] = Antimicrobial activity against Salmonella serovar Typhimurium SL1344 expressing marA::aph mutant by broth dilution method; format: functional; settings: Salmonella enterica
# [10] = Antimicrobial activity against Salmonella serovar Typhimurium SL1344 expressing acrD::aph mutant by broth dilution method; format: functional; settings: Salmonella enterica
# [11] = Antimicrobial activity against Salmonella serovar Typhimurium SL1344 expressing soxS::aph mutant by broth dilution method; format: functional; settings: Salmonella enterica
# [12] = Antimicrobial activity against Salmonella serovar Typhimurium SL1344 expressing acrF::aph mutant by broth dilution method; format: functional; settings: Salmonella enterica
# [13] = Antimicrobial activity against Salmonella serovar Typhimurium SL1344 assessed as ramA expression at 200 ug/ml; format: functional
# [14] = Antimicrobial activity against Salmonella serovar Typhimurium SL1344 expressing acrB::aph mutant assessed as ramA expression at 200 ug/ml; format: functional
# [15] = Antimicrobial activity against Salmonella serovar Typhimurium SL1344 expressing ramA::aph mutant assessed as acrB expression at 200 ug/ml; format: functional
# [16] = Antimicrobial activity against Salmonella serovar Typhimurium SL1344 assessed as acrB expression at 200 ug/ml; format: functional
# Salmonella typhimurium [17] = assay: Antimicrobial activity against Salmonella serovar Typhimurium LT2 by broth dilution method; format: functional, Salmonella enterica subsp. enterica serovar Typhimurium; settings: Salmonella enterica
# [18] = Antimicrobial activity against Salmonella serovar Haifa 9878 by broth dilution method; format: functional, Salmonella enterica subsp. enterica serovar Haifa; settings: Salmonella enterica
# [19] = Antimicrobial activity against Salmonella serovar Virchow 5742 by broth dilution method; format: functional, Salmonella enterica subsp. enterica serovar Virchow; settings: Salmonella enterica
# [20] = Antimicrobial activity against Salmonella serovar Newport 129 by broth dilution method; format: functional, Salmonella enterica subsp. enterica serovar Newport; settings: Salmonella enterica
# Salmonella typhimurium [21] = assay: Antimicrobial activity against Salmonella serovar Typhimurium 14028S by broth dilution method; format: functional, Salmonella enterica subsp. enterica serovar Typhimurium; settings: Salmonella enterica
# [22] = Antimicrobial activity against Salmonella serovar Binza 8269 by broth dilution method; format: functional, Salmonella enterica subsp. enterica serovar Binza; settings: Salmonella enterica
# Salmonella enteritidis = assay: Antimicrobial activity against Salmonella serovar Enteritidis 5188 by broth dilution method; format: functional, Salmonella enterica subsp. enterica serovar Enteritidis; settings: Salmonella enterica
# [23] = Antimicrobial activity against Salmonella serovar Montevideo 5747 by broth dilution method; format: functional, Salmonella enterica subsp. enterica serovar Montevideo; settings: Salmonella enterica
# [24] = Antimicrobial activity against Salmonella serovar Mbandaka 7892 by broth dilution method; format: functional, Salmonella enterica subsp. enterica serovar Mbandaka; settings: Salmonella enterica
# [25] = Antimicrobial activity against Salmonella serovar Heidelberg 5171 by broth dilution method; format: functional, Salmonella enterica subsp. enterica serovar Heidelberg; settings: Salmonella enterica
# [26] = Antimicrobial activity against Salmonella serovar Kedougou by broth dilution method; format: functional, Salmonella enterica subsp. enterica serovar Kedougou; settings: Salmonella enterica
# [27] = Antimicrobial activity against Salmonella serovar Hadar by broth dilution method; format: functional, Salmonella enterica subsp. enterica serovar Hadar; settings: Salmonella enterica
Structure (SMILES),MIC [1] [µg/mL],MIC [2] [µg/mL],MIC [3] [µg/mL],MIC [4] [µg/mL],MIC [5] [µg/mL],MIC [6] [µg/mL],other results
CN(C)c1ccc2cc3ccc(N(C)C)cc3nc2c1 [ACRIDINE ORANGE],512,256,512,512,256,512,–
CN(C)CCC=C1c2ccccc2CCc2ccccc21 [AMITRIPTYLINE],–,–,–,–,512,512,MIC [7]: 256 µg/mL; MIC [8]: 256 µg/mL; MIC [9]: 512 µg/mL; MIC [10]: 1020 µg/mL; MIC [11]: 512 µg/mL; MIC [12]: 512 µg/mL
O=C(N[C@H](CO)[C@H](O)c1ccc([N+](=O)[O-])cc1)C(Cl)Cl [CHLORAMPHENICOL],0.015,8,32,16,4,4,–
CN(C)CCCN1c2ccccc2Sc2ccc(Cl)cc21 [CHLORPROMAZINE],–,512,512,–,256,512,fold change (FC) [13]: 0.4; fold change (FC) [14]: 0.7; MIC [7]: 32 µg/mL; fold change (FC) [15]: 1.6; MIC [8]: 32 µg/mL; MIC [9]: 256 µg/mL; MIC [10]: 128 µg/mL; fold change (FC) [16]: 2.6; MIC [11]: 256 µg/mL; MIC [12]: 128 µg/mL
O=C(O)c1cn(C2CC2)c2cc(N3CCNCC3)c(F)cc2c1=O [CIPROFLOXACIN],0.008,0.03,0.03,0.015,0.03,0.03,–
CN(C)c1ccc(C(=C2C=CC(=[N+](C)C)C=C2)c2ccc(N(C)C)cc2)cc1.[Cl-] [GENTIAN VIOLET],1,2,2,0.5,2,2,–
CC[n+]1c(-c2ccccc2)c2cc(N)ccc2c2ccc(N)cc21.[Br-] [HOMIDIUM BROMIDE],8,2050,2050,512,1020,1020,MIC (Salmonella typhimurium [17]): 1020 µg/mL; MIC [18]: 1020 µg/mL; MIC [19]: 1020 µg/mL; MIC [20]: 1020 µg/mL; MIC (Salmonella typhimurium [21]): 2050 µg/mL; MIC [22]: 1020 µg/mL; MIC (Salmonella enteritidis): 1020 µg/mL; MIC [23]: 1020 µg/mL; MIC [24]: 1020 µg/mL; MIC [25]: 512 µg/mL; MIC [26]: 512 µg/mL; MIC [27]: 1020 µg/mL
